Data on two compounds can be found in article PMC9608142, “Population pharmacokinetic analysis, renal safety, and dosing optimization of polymyxin B in lung transplant recipients with pneumonia: A prospective study” (Frontiers in Pharmacology, 2022).

Where two headings read alike, the source gives them in different places. Bridge positions count the residues as written; N and C are the ends. Square brackets hold non-standard residues; d marks the D form. Peptide text beside a SMILES is read from it. * marks the point of attachment. X1 = CC[C@H](C)CCCCC(=O)*; Dab = NCC[C@H](N)C(=O)O

Data set [1] concerns Acinetobacter Baumannii. The following applies: thigh infection model, ref Cheah et al., 2015; cited from earlier work. As for the experimental part:
(§1) This is the first study to simulate the PTA and AUCss,24h of different dosage regimens in lung transplant patients. In vitro and animal studies pointed out that fAUC/MIC is the PK/PD index that is best correlated with the efficacy of polymyxins ([Tsuji et al., 2019]). In the thigh infection model, the fAUC/MIC values of colistin for 2log10 bacterial killings were approximately 20 for P. aeruginosa and Acinetobacter Baumannii ([Cheah et al., 2015]). Therefore, considering the similar molecular structures and in vitro activity of colistin and polymyxin B, the fAUC/MIC ≥20 was determined as the P ...

The subject of data set [2] is P. aeruginosa. The following applies: thigh infection model, ref Cheah et al., 2015; cited from earlier work. As for the experimental part: as §1
A short description of data set [3]: Population pharmacokinetic analysis (NONMEM) of polymyxin B plasma concentrations in lung transplant recipients. The class given is in vivo, human. An excerpt: (§2) This prospective study was approved by the Ethical Committees of the affiliated Wuxi People’s Hospital of Nanjing Medical University, China (KS202002), in accordance with the Declaration of Helsinki. The informed consent was obtained from each patient or his/her legal representatives. Adult lung transplant recipients receiving polymyxin B sulfate against confirmed MDR Gram-negative bacterial infections at the affiliated Wuxi People’s Hospital of Nanjing Medical University, from January 2020 to December 2021, were included in this study. The inclusion criteria were as follows: 1) ≥18 years old; 2) diagnosis of pneumonia; 3) receiving polymyxin B therapy for at least 3 days; 4) having at least one plasma concentration of polymyxin B. The exclusion criteria were as follows: 1) allergic or intolerant to polymyxin B; 2) died within 24 h after being treated with polymyxin B.
(§3) The decision to administer polymyxin B (sulfate, Polymyxin B for Injection, Shanghai Number one Biochemical and Pharmaceutical, Shanghai, China) and its medication, including the amount, dosing interval, administration route, and treatment duration, were decided by the attending physician. Generally, the loading dose of 2.0–2.5 mg/kg, and the maintenance dose of 1.25–1.5 mg/kg given every 12 h infused over 1 h was recommended according to the guideline for optimizing polymyxins ([Tsuji et al., 2019]). In addition, inhalation of polymyxin B sulfate (25 mg q12h) was combinedly used.
All the blood samples were collected at least 48 h after initiating polymyxin B ([Tsuji et al., 2019]). In each patient, four blood samples were collected: 0.5 h before starting the infusion, 1, 2, and 6 h after completing the infusion, respectively. After sampling, blood samples were immediately centrifuged at 15,000 rpm for 5 min and stored at −80°C. The concentrations of polymyxin B in the blood samples were determined by a validated high-performance liquid chromatography-tandem mass spectrometry (LC-MS/MS) assay ([Thomas et al., 2012]). The calibration range of polymyxin B by the method was 0.1–30 μg/ml. The method validations including selectivity, recovery, precision, accuracy, matrix effect, calibration curve, and stability met the requirement of FDA principles.
Nonlinear mixed-effects modeling (NONMEM) program (version 7.4, Icon Development Solutions, Ellicott City, MD, United States) and Pirana (version 2.9.7) was used to perform PK analysis of polymyxin B. R (Version 3.6.1) was used to analyze the NONMEM output. The first-order conditional estimation with the interaction between inter-patient variability and residual variability was used for model development.
One- or two-compartment structural model with first-order elimination were explored for the concentration-time profiles. Visual inspection of diagnostic plots and goodness-of-fit criteria, condition number, and improvement of the objective function value (OFV) were performed to evaluate the base model. The pharmacokinetic parameters used for this study were clearance (CL) and volume of distribution (V). Between-subject variability (BSV) was assessed using the exponential model (Eq. 1). Pi=P×EXP(ETA( ηi)) (1) Pi was the individual patient PK parameter; P was the typical value; ηi was the interpatient random variation.
Residual variability was assessed by additive (Eq. 2), proportional (Eq. 3), or combined (additive plus proportional) (Eq. 4) error models, respectively. The optimal one was chosen based on the decrease in OFV. Y=F+EPS (1) (2) Y=F+F×EPS (1) (3) Y=F+F×EPS (1)+EPS(2) (4) Y was the individual observed concentration; F was the individual predictive concentration; EPS was the residual random variation.
Relationships between the potential covariates and individual PK parameters were examined visually. […]

The test system of data set [4] is carbapenem-resistant organisms (A. baumannii, P. aeruginosa, K. pneumoniae, E. cloacae). As to the kind of experiment: Clinical treatment efficacy and microbiological efficacy in lung transplant recipients with pneumonia. The class given is in vivo, human.
Text: as §2
The demographic characteristics, laboratory data, pathogenic bacteria, medication information, and adverse events of polymyxin B sulfate were acquired from the patients’ medical records. Clinical success was defined as improvement of clinical symptoms and parameters including body temperature, biochemistry indicators of infection (white cell count ≤ 10^9, C-reactive protein ≤10 mg/L, procalcitonin <0.05 ng/ml, and erythrocyte sedimentation rate <15 mm/h), and clinician-documented improvement at the end of treatment ([Yu et al., 2022]). RIFLE (Risk, Injury, Failure, Loss of function, and End-stage kidney disease) criteria were used to assess the acute kidney injury (AKI) caused by polymyxin B ([Han et al., 2022]). The definition of nephrotoxicity caused by polymyxin B was further confirmed using the Naranjo criteria. Hyperpigmentation is defined as the darkening of the skin’s natural color, usually due to an increase in melanin deposition in the epidermis or dermis ([Lu and Hou, 2020]).
as §3

For data set [5] the following is noted: cited from earlier work. An excerpt:
Supplement DataSheet1.docx, table 2: Table S2. […] The urinary recovery of polymyxin B is low and non-renal clearance is considered the major route of the clearance of polymyxin B ([Tsuji et al., 2019]), but it undergoes extensive reabsorption by renal tubular cells ([Nang et al., 2021]). […] The ratio of the area of unbound concentration-time curve to the MIC (fAUC/MIC) is the best PK/PD index predicting bacterial killing for polymyxins ([Dudhani et al., 2010a]; [Dudhani et al., 2010b]; [Cheah et al., 2015]). The fAUC/MIC value ≥20 at various MICs (0.5–2 mg/L) was used as the target ([Sandri et al., 2013]), where f (assumed to be 0.42) is the unbound fraction of polymyxin B ([Sandri et al., 2013]). The probability of target attain ... || (+ 2 further places)

The conditions of data set [6]: parenteral polymyxin B, mouse infection studies; ref Nang et al., 2021; cited from earlier work. An excerpt:
The urinary recovery of polymyxin B is low and non-renal clearance is considered the major route of the clearance of polymyxin B ([Tsuji et al., 2019]), but it undergoes extensive reabsorption by renal tubular cells ([Nang et al., 2021]).

[7] abbreviates: bootstrap of final model, median estimate, 1,000 replicates.
[8] abbreviates: adult patients, n = 35, 1 CMT, ref Manchandani et al. 2018 [29].
The mark [9] stands for this setting: adult patients, n = 43, 1 CMT, ref Kubin et al. 2018 [31].
Where [10] appears, read: adult patients, n = 46, 2 CMT, ref Wang et al. 2020 [27].
[11] abbreviates: adult patients, n = 52, 2 CMT, ref Miglis et al. 2018 [28].
[12] abbreviates: adult patients, n = 52, ref Miglis et al. 2018 [28].
[13] abbreviates: critically ill patients, n = 24, 2 CMT, ref Sandri et al. 2013 [22].

What is called AUC is concentration integrated over time.

On to colistin, for which the “fAUC/MIC value for 2log10 bacterial killings” value in data set [1] and in data set [2] was “approximately 20” in each case.

With `CC[C@H](C)CCCCC(=O)N[C@@H](CCN)C(=O)N[C@H](C(=O)N[C@@H](CCN)C(=O)N[C@H]1CCNC(=O)[C@H]([C@@H](C)O)NC(=O)[C@H](CCN)NC(=O)[C@H](CCN)NC(=O)[C@H](CC(C)C)NC(=O)[C@@H](Cc2ccccc2)NC(=O)[C@H](CCN)NC1=O)[C@@H](C)O` [polymyxin B] (X1-[Dab]T[Dab][Dab][Dab][dF]L[Dab][Dab]T; lactam 4-C), in data set [3] (setting [7]), the “θCL, typical value of clearance” value was 1.72 L/h. Also, the “θV, typical value of volume of distribution” value is recorded as 14.3 L in data set [3] (setting [7]) and 14.4 L in data set [3] (final model estimate, 1-compartment). Further, the “effect of concomitant furosemide or albumin on the PK of polymyxin B” value in data set [3] (covariate test in lung transplant recipients, limited number of patients) was “did not significantly affect the PK”. The “CrCL on CL (θ1), exponential value for CrCL as covariate of CL” value in data set [3] (final model estimate, CrCL/78.49) is reported as 0.681. Further, the clearance in data set [3] (human, plasma, iv, base model estimate (no covariate), read-out: TVCL, typical value of clearance (converted)) is 27.5 mL/min; in data set [3] (human, plasma, iv, final model estimate, 1-compartment, first-order elimination, at median CrCL 78.49 ml/min, read-out: θCL, typical value of clearance (converted)), 28.7 mL/min; in data set [3] (human, plasma, iv, present study, lung transplant patients, n = 34, read-out: CL (PK Parameters) (converted)) it was 31.2 mL/min. Further, the Vd in data set [3] (human, plasma, iv, base model estimate, read-out: TVV, typical value of volume) was 14.6 L. Also, the AUC in data set [3] (mean ± SD, 34 lung transplant recipients, AUC0-24 by linear-log trapezoidal rule from Bayesian-predicted concentrations, SD) is 69660 ± 35920 ng·h/mL. Further, the “Clinical anti-infective outcome: Failed” value in data set [4] (5 of 34 patients, iv plus inhaled polymyxin B) is reported as 5 (14.71%). The “Clinical anti-infective outcome: Cured” value in data set [4] (12 of 34 patients, iv plus inhaled polymyxin B, treatment 17.94 ± 7.13 days) was 12 (35.29%). Besides, in data set [4] (17 of 34 patients, iv plus inhaled polymyxin B), the “Clinical anti-infective outcome: Improved” value is 17 (50%). The “patients considered of clinical cure or improved” value in data set [4] (29 of 34 patients, end of treatment) was 85.29%. The “CL, typical value in PK formula” value in data set [5] (adult critically ill patients, n = 32, 1 CMT, CL = 1.59+(CrCL/80)^0.408, ref Yu et al. 2021 [26]) was 1.59 L/h; in data set [5] (adult patients, n = 46, 2 CMT, ×(CrCL/105.9)^0.362, ref Wang et al. 2020 [27]) it was 1.786 L/h; in data set [5] (adult patients, n = 52, 2 CMT, ×(TBW/75)^0.75, ref Miglis et al. 2018 [28]), 2.63 L/h; in data set [5] (critically ill patients, n = 24, 2 CMT, ×(TBW/75)^0.75, ref Sandri et al. 2013 [22]), 0.46 mL/min/kg; in data set [5] (renal transplant patients, n = 50, 1 CMT, CL = 1.18×(CrCL/22.2)^0.14, ref Li et al. 2021 [14]), 1.18 L/h. In addition, the V in data set [5] (adult critically ill patients, n = 32, 1 CMT, ref Yu et al. 2021 [26]) is reported as 20.5 L; in data set [5] (setting [8]) it was 34.3 L; in data set [5] (setting [9]), 33.4 L; in data set [5] (setting [10]), 6.218 L; in data set [5] (renal transplant patients, n = 50, 1 CMT, ref Li et al. 2021 [14]), 12.09 L. For the same compound, the “CL (PK Parameters)” value in data set [5] (adult critically ill patients, n = 32, ref Yu et al. 2021 [26]) is on record as 1.75 L/h; in data set [5] (setting [12]), 2.63 ± 1.41 L/h. Further, the “CL in PK formula” value in data set [5] (setting [8]) was 2.5 L/h; in data set [5] (setting [9]), 2.37 L/h. In addition, the “CL (PK Parameters), mean” value in data set [5] (adult patients, n = 35, mean, ref Manchandani et al. 2018 [29]) is listed as 2.5 L/h. Also, the Q in data set [5] (setting [10]) was 13.518 L/h; in data set [5] (setting [11]) it was 2.32 L/h. Also, the results for the V2 in data set [5] (setting [10]) and in data set [5] (setting [13]) were 11.922 L and 0.330 L/kg, respectively. Besides, the “CL (PK Parameters), median” value in data set [5] (adult patients, n = 46, median, ref Wang et al. 2020 [27]) is reported as 1.786 L/h. Moreover, in data set [5] (setting [11]), the Vc is on record as 33.77 L. In data set [5] (setting [11]), the Vp was 78.20 L. Moreover, the “V (PK Parameters)” value in data set [5] (setting [12]) was 33.77 ± 15.21 L. Besides, in data set [5] (assumed value used for fAUC/MIC, ref Sandri et al., 2013), the “f, unbound fraction of polymyxin B” value is given as 0.42. Besides, the “effect of inhalation therapy on the exposure of polymyxin B in blood” value in data set [5] (co-inhalation 25 mg q12h, critically ill patients, ref Yu et al., 2021) is “did not significantly increase the exposure”. The CLic in data set [5] (setting [13]) was 2.43 mL/min/kg. Besides, the V1 in data set [5] (setting [13]) is 0.0939 L/kg. For the same compound, the urinary recovery entry in data set [5] (non-renal clearance considered the major route, ref Tsuji et al., 2019) is recorded as “low”. Further, the “penetration in the lungs” value in data set [6] is recorded as “poor penetration in the lungs”.
